Laboratory results as given in US12551478B2, “Quinoline derivative having indoleamine-2,3-dioxygenase inhibitory activity” (SHENZHEN CHIPSCREEN BIOSCIENCES CO., LTD., priority 2018, dated 2026).

Molecular target: T1, human indoleamine 2,3-dioxygenase 1 (hIDO1) (Homo sapiens, UniProt P14902)
T1 construct: up-regulate the expression of endogenous IDO1 under the induction of human IFN-γ; endogenous in cells; host or cells: HeLa cells stimulated with human IFN-γ
Assay: Inhibitory activity test at cellular level: IFN-γ-induced HeLa cells, kynurenine colour reaction
Assay type: cell-based
Conditions: 50 ng/ml human IFN-γ, 200 μM L-tryptophan, 48 hours, each test compound 100 nM, read-out: hIDO1-cell base inhibition rate (%)
Excerpt: The subject of this assay was to comprehensively evaluate different compounds on their enzymatic inhibitory activity in vitro and on cell models against human indoleamine 2,3-dioxygenase 1 (hIDO1).
In the present application, the inventors used Hela cells expressing IDO1 induced by IFN-γ as a model, to test the IDO1 inhibitory activity of the compounds at the cellular level.
HeLa cells are human cervical cancer cell lines, which can up-regulate the expression of endogenous IDO1 under the induction of human IFN-γ. By adding the substrate L-tryptophan to cell culture medium, the enzymatic catalysis product kynurenine in cell supernatant was detected. In this experiment, the cultured Hela cells were used and co-incubated with different concentrations of test compounds under stimulation of human IFN-γ for a specified period of time, and the color reaction method of enzyme product and p-dimethylaminobenzaldehyde was used to detect the effect on IDO enzyme activity of cells treated by the test compounds.
(1) Hela cells were inoculated into 96-well culture plates at an appropriate concentration (about 20,000 cells/well). […] The cells were continuously cultured for 48 hours before detection.
(2) 200 μL of the supernatant in the culture well was pipetted out, added with 40 μL of the pre-prepared 30% (w/v) trichloroacetic acid solution, and reacted at 65° C. for 20 minutes, and then centrifuged at 12000 rpm for 15 minutes.
(3) 100 μL of the supernatant after centrifugation was pipetted out, added into a 96-well flat bottom plate, then added with an equal volume of 2% p-dimethylaminobenzaldehyde in glacial acetic acid and mixed well, and stood at room temperature for 10 minutes.
(4) microplate reader (ELX800NB) was used to detect the absorbance value of each well, and the detection wavelength was 492 nm.
In addition, after the cell enzyme activity inhibition rates of test compounds with different concentration gradients were separately calculated, their cell enzyme activity half inhibition concentrations (EC50) were calculated by using EC50 calculator.
According to the above-mentioned experimental method, the compounds of the present application were subjected to IDO1 enzymatic evaluation at cytological level (the concentration of each test compound was all 100 nM).
According to the above-mentioned experimental method, the compound of the present application was subjected to hIDO1-cell base EC50 detection.

T1 sequence (P14902 whole entry): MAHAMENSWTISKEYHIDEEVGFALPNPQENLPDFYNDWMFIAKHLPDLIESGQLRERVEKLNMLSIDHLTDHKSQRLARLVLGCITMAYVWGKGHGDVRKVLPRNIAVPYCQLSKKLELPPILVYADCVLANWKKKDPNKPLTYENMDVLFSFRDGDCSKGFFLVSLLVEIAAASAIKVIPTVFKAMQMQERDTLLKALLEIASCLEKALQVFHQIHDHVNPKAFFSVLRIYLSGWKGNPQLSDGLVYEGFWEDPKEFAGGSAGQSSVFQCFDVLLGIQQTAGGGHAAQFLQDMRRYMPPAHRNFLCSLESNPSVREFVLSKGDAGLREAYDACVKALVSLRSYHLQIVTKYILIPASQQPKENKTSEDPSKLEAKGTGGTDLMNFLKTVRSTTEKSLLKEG

Structure (SMILES) | inhibition at 0.1 µM [%]
O=C(Nc1ccc(Cl)cc1)N1CC2(CC(Oc3cnc4ccccc4c3)C2)C1 [Example 26, N-(4-chlorophenyl)-6-(quinolin-3-yloxy)-2-aza-spiro[3.3]heptan-2-carboxamide] | 15
O=C(Nc1ccc(Cl)cc1)N1CC2(CC(Oc3ncnc4ccccc34)C2)C1 [Example 29, N-(4-chlorophenyl)-6-(quinazolin-4-yloxy)-2-aza-spiro[3.3]heptan-2-carboxamide] | 10
O=C(Nc1ccc(F)cc1)N1CC2C(C1)C2Oc1ccnc2ccc(F)cc12 (centres unmarked) [Example 30, N-(4-fluorophenyl)-6-((6-fluoroquinolin-4-yl)oxy)-3-aza-cyclo[3.1.0]hexan-3-carboxamide] | 11
O=C(Nc1ccc(Cl)cc1)N1CC2C(C1)C2Oc1ccnc2ccc(F)cc12 (centres unmarked) [Example 31, N-(4-chlorophenyl)-6-((6-fluoroquinolin-4-yl)oxy)-3-aza-cyclo[3.1.0]hexan-3-carboxamide] | 46
O=C(Nc1ccc(Cl)cc1)N1CC2(CC(Oc3nccc4ccccc34)C2)C1 [Example 36, N-(4-chlorophenyl)-6-(isoquinolin-1-yloxy)-2-aza-spiro[3.3]heptan-2-carboxamide] | 26
CC(C(=O)NC1CCCCC1)N1CC2(CC(Oc3ccnc4ccc(F)cc34)C2)C1 (centres unmarked) [Example 40, N-cyclohexyl-2-(6-((6-fluoroquinolin-4-yl)oxo)-2-aza-spiro[3.3]heptan-2-yl)propionamide] | 19
CC(C(=O)Nc1ccc(Cl)cc1)N1CC2C(COc3ccnc4ccc(F)cc34)C2C1 (centres unmarked) [Example 46, N-(4-chlorophenyl)-2-(6-(((6-fluoroquinolin-4-yl)oxo)methyl)-3-aza-bicyclo[3.1.0]hexan-3-yl)propionamide] | 49
CC(C(=O)Nc1ccc(Cl)cc1)N1CC2C(C1)C2Oc1ccnc2ccc(F)cc12 (centres unmarked) [Example 49, N-(4-chlorophenyl)-2-(6-((6-fluoroquinolin-4-yl)oxo)-3-aza-bicyclo[3.1.0]hexan-3-yl)propionamide] | 99
CC(C(=O)Nc1ccc(Cl)cc1)N1CC2(CC(Nc3ccnc4ccc(F)cc34)C2)C1 (centres unmarked) [Example 54, N-(4-chlorophenyl)-2-(6-((6-fluoroquinolin-4-yl)amino)-2-aza-spiro[3.3]heptan-2-yl)propionamide] | 69
CC(C(=O)Nc1ccc(Cl)cc1)N1CC2(CC(N(C)c3ccnc4ccc(F)cc34)C2)C1 (centres unmarked) [Example 59, N-(4-chloro)-2-(6-((6-fluoroquinolin-4-yl)(methyl)amino)-2-aza-spiro[3.3]heptan-2-yl)propionamide] | 85
CC(C(=O)Nc1ccc(Cl)cc1)N1CCC2CN(c3ccnc4ccc(F)cc34)CC2C1 (centres unmarked) [Example 64, N-(4-chlorophenyl)-2-(2-(6-fluoroquinolin-4-yl)octahydro-5H-pyrrolo[3,4-c]pyridin-5-yl)propionamide] | 96
COc1cccc(NC(=O)C(C)N2CCC3CN(c4ccnc5ccc(F)cc45)CC3C2)c1 (centres unmarked) [Example 65, 2-(2-(6-fluoroquinolin-4-yl)octahydro-5H-pyrrolo[3,4-c]pyridin-5-yl)-N-(3-methoxyphenyl)propionamide] | 59
COc1ccc(NC(=O)C(C)N2CCC3CN(c4ccnc5ccc(F)cc45)CC3C2)cc1 (centres unmarked) [Example 66, 2-(2-(6-fluoroquinolin-4-yl)octahydro-5H-pyrrolo[3,4-c]pyridin-5-yl)-N-(4-methoxyphenyl)propionamide] | 90
CC(C(=O)Nc1ccccc1)N1CCC2CN(c3ccnc4ccc(F)cc34)CC2C1 (centres unmarked) [Example 67, 2-(2-(6-fluoroquinolin-4-yl)octahydro-5H-pyrrolo[3,4-c]pyridin-5-yl)-N-phenyl-propionamide] | 94
COc1ccc(NC(=O)C(C)N2CC3C(C2)C3Nc2ccnc3ccc(F)cc23)cc1 (centres unmarked) [Example 73, 2-(6-((6-fluoroquinolin-4-yl)amino)-3-aza-bicyclo[3.1.0]hexan-3-yl)-N-(4-methoxyphenyl)propionamide] | 83
CC(C(=O)Nc1ccccc1)N1CC2C(C1)C2Nc1ccnc2ccc(F)cc12 (centres unmarked) [Example 74, 2-(6-((6-fluoroquinolin-4-yl)amino)-3-aza-bicyclo[3.1.0]hexan-3-yl)-N-phenyl-propionamide] | 85
O=C(Nc1ccc(Cl)cc1)C(CO)N1CC2C(C1)C2Nc1ccnc2ccc(F)cc12 (centres unmarked) [Example 78, N-(4-chlorophenyl)-2-(6-((6-fluoroquinolin-4-yl)amino)-3-aza-bicyclo[3.1.0]hexan-3-yl)-3-hydroxypropionamide] | 42
CC(C(=O)Nc1ccc(Cl)cc1)N1CC2CC(Nc3ccnc4ccc(F)cc34)CC2C1 (centres unmarked) [Example 83, N-(4-chlorophenyl)-2-(5-((6-fluoroquinolin-4-yl)amino)hexahydro-cyclopenta[c]pyrrol-2(1H)-yl)propionamide] | 45

Results, then the compound that gave them:

inhibition at 0.1 µM [%] | Structure (SMILES)
49 | COc1cccc(NC(=O)N2CC3(CC(Oc4ccnc5ccc(F)cc45)C3)C2)c1 [Example 4, N-(3-methoxyphenyl)-6-((6-fluoroquinolin-4-yl)oxy)-2-aza-spiro[3.3]heptan-2-carboxamide]
63 | COc1ccc(NC(=O)N2CC3(CC(Oc4ccnc5ccc(F)cc45)C3)C2)cc1 [Example 5, N-(4-methoxyphenyl)-6-((6-fluoroquinolin-4-yl)oxy)-2-aza-spiro[3.3]heptan-2-carboxamide]
87 | O=C(c1ccc(Cl)cc1)N1CC2(CC(Oc3ccnc4ccc(F)cc34)C2)C1 [Example 6, (4-chlorophenyl)(6-((6-fluoroquinolin-4-yl)oxy)-2-aza-spiro[3.3]heptan-2-yl) methanone]
31 | O=C(/C=C/c1ccc(Cl)cc1)N1CC2(CC(Oc3ccnc4ccc(F)cc34)C2)C1 [Example 7, (E)-3-(4-chlorophenyl)-1-(6-((6-fluoroquinolin-4-yl)oxy)-2-aza-spiro[3.3]heptan-2-yl)prop-2-en-1-one]
90 | COC/C=C/c1ccc(NC(=O)N2CC3(CC(Oc4ccnc5ccc(F)cc45)C3)C2)cc1 [Example 10]
25 | O=C(CNc1ccccc1)N1CC2(CC(Oc3ccnc4ccc(F)cc34)C2)C1 [Example 11, 1-(6-((6-fluoroquinolin-4-yl)oxy)-2-aza-cyclo[3.3]heptan-2-yl)-2-(anilino)ethyl-1-one]
18 | O=C(NCc1ccc(Cl)cc1)N1CC2(CC(Oc3ccnc4ccc(F)cc34)C2)C1 [Example 15, N-(4-chlorobenzyl)-6-((6-fluoroquinolin-4-yl)oxy)-2-aza-spiro[3.3]heptan-2-carboxamide]
85 | O=C(Nc1ccc(F)cc1)N1CC2(CC(Oc3ccnc4ccc(F)cc34)C2)C1 [Example 16, N-(4-fluorophenyl)-6-((6-fluoroquinolin-4-yl)oxy)-2-aza-spiro[3.3]heptan-2-carboxamide]
61 | O=C(Nc1ccc(Cl)cc1)N1CC2(CCC(Nc3ccnc4ccc(F)cc34)C2)C1 (centres unmarked) [Example 19]
74 | O=C(Nc1ccc(Cl)cc1)N1CC2(CC(Oc3ccnc4ccccc34)C2)C1 [Example 23, N-(4-chlorophenyl)-6-(quinolin-4-yloxy)-2-aza-spiro[3.3]heptan-2-carboxamide]
44 | O=C(Nc1ccc2c(c1)CCO2)N1CC2(CC(Oc3ccnc4ccc(F)cc34)C2)C1 [Example 32, N-(2,3-dihydrobenzofuran-5-yl)-6-((6-fluoroquinolin-4-yl)oxy)-2-aza-spiro[3.3]heptan-2-carboxamide]
10 | O=C(Nc1ccc2c(c1)OCCO2)N1CC2(CC(Oc3ccnc4ccc(F)cc34)C2)C1 [Example 33, N-(2,3-dihydrobenzo[b][1,4]dioxin-6-yl)-6-((6-fluoroquinolin-4-yl)oxy)-2-aza-spiro[3.3]heptan-2-carboxamide]
91 | CC(C(=O)Nc1ccc(Cl)cc1)N1CC2(CC(Oc3ccnc4ccc(F)cc34)C2)C1 (centres unmarked) [Example 39, N-(4-chlorophenyl)-2-(6-((6-fluoroquinolin-4-yl)oxo)-2-aza-spiro[3.3]heptan-2-yl)propionamide]
23 | CC(C(=O)Nc1cccnc1)N1CC2(CC(Oc3ccnc4ccc(F)cc34)C2)C1 (centres unmarked) [Example 41, 2-(6-((6-fluoroquinolin-4-yl)oxo)-2-aza-spiro[3.3]heptan-2-yl)-N-(pyridin-3-yl)propionamide]

Same assay, conditions: human IFN-γ, 48 hours, read-out: hIDO1-cell base EC50

Structure (SMILES) | EC50 [nM]
CC(C(=O)Nc1ccc(Cl)cc1)N1CC2C(C1)C2Oc1ccnc2ccc(F)cc12 (centres unmarked) [Example 49, N-(4-chlorophenyl)-2-(6-((6-fluoroquinolin-4-yl)oxo)-3-aza-bicyclo[3.1.0]hexan-3-yl)propionamide] | 5
CC(C(=O)Nc1ccc(Cl)cc1)N1CC2(CC(N(C)c3ccnc4ccc(F)cc34)C2)C1 (centres unmarked) [Example 59, N-(4-chloro)-2-(6-((6-fluoroquinolin-4-yl)(methyl)amino)-2-aza-spiro[3.3]heptan-2-yl)propionamide] | 25

Next, values leading:

EC50 [nM] | Structure (SMILES)
36 | O=C(c1ccc(Cl)cc1)N1CC2(CC(Oc3ccnc4ccc(F)cc34)C2)C1 [Example 6, (4-chlorophenyl)(6-((6-fluoroquinolin-4-yl)oxy)-2-aza-spiro[3.3]heptan-2-yl) methanone]
33 | O=C(Nc1ccc(F)cc1)N1CC2(CC(Oc3ccnc4ccc(F)cc34)C2)C1 [Example 16, N-(4-fluorophenyl)-6-((6-fluoroquinolin-4-yl)oxy)-2-aza-spiro[3.3]heptan-2-carboxamide]
26 | O=C(Nc1ccc(Cl)cc1)N1CC2(CC(Oc3ccnc4ccccc34)C2)C1 [Example 23, N-(4-chlorophenyl)-6-(quinolin-4-yloxy)-2-aza-spiro[3.3]heptan-2-carboxamide]
20 | CC(C(=O)Nc1ccc(Cl)cc1)N1CC2(CC(Oc3ccnc4ccc(F)cc34)C2)C1 (centres unmarked) [Example 39, N-(4-chlorophenyl)-2-(6-((6-fluoroquinolin-4-yl)oxo)-2-aza-spiro[3.3]heptan-2-yl)propionamide]
